Measured values reported in patent publication US8198441B2, “Process for the preparation of novel pyridopyrazines as mTOR kinase inhibitors” (AstraZeneca AB, priority 2008, dated 2012).
Read-outs that look alike come from different tables or passages of the source.

Tests used:
[1] = TIM-1 multi-compartmental in vitro model, bioaccessibility; assay type: in vitro ADME; conditions: for recovery at 10 mg/mL: TIM-1 multi-compartmental in vitro gastrointestinal model, read-out: Total recovery
Procedure: Bioaccessibility of a compound of Formula 5a in the form of a free base and a fumarate salt was assessed using a TIM-1 multi-compartmental in vitro model (TNO Quality of Life, The Netherlands).
Initial assessment of solutions and suspensions of the free base form at concentrations of 10 mg/mL and doses of 200 mg and 500 mg were performed using a standard protocol (lipid-fasted with starting gastric pH of 2 and a gastric half-time of 30 minutes).
A further study was performed with an increased initial gastric pH of 5 and a reduced gastric half-time of 20 min. In this study, 200 mg (free base equivalent) doses of 10 mg/mL suspensions of the free base and fumarate salt of the compound of Formula 5a were compared (see Table 4, FIG. 8).

[2] = Stability study of the fumarate salt in the solid state; assay type: physicochemical
Procedure: The stability of the fumarate salt of the compound of Formula 5a in the solid state was investigated for samples stored at 25° C./60% relative humidity (RH) in double lined polyethylene bags inside a fibreboard outer for long term stability testing. […] AH (ambient humidity) in double lined polyethylene bags inside fibreboard outers. Further stress testing was performed on exposed samples at 40° C./75% RH and at ambient temperature in a light chamber (exposed to a minimum of 1.2 million lux hours visible light and 200 watt-hours/m^2 UV light), as shown in Table 5.

COc1ccc(-c2ccc3c(N4CCOC[C@@H]4C)nc(N4CCOC[C@@H]4C)nc3n2)cc1CO [Formula 5a free base, (5-{2,4-bis[(3S)-3-methylmorpholin-4-yl]pyrido[2,3-d]pyrimidin-7-yl}-2-methoxyphenyl)methanol]
recovery at 10 mg/mL ([1]; 200 mg (free base equivalent), pH 5, 200 mg (free base equivalent) of 10 mg/mL suspension, initial gastric pH 5, gastric half-time 20 min): 93%
recovery at 10 mg/mL ([1]; 200 mg, pH 2, 200 mg solution, 10 mg/mL, lipid-fasted, starting gastric pH 2, gastric half-time 30 min): 96.8%
recovery at 10 mg/mL ([1]; 200 mg, pH 2, 200 mg suspension, 10 mg/mL, lipid-fasted, starting gastric pH 2, gastric half-time 30 min): 97.6%
recovery at 10 mg/mL ([1]; 200 mg, pH 2, Table 4: 200 mg suspension, gastric pH 2): 97.6%
recovery at 10 mg/mL ([1]; 500 mg, pH 2, 500 mg solution, 10 mg/mL, lipid-fasted, starting gastric pH 2, gastric half-time 30 min): 93.6%
recovery at 10 mg/mL ([1]; 500 mg, pH 2, 500 mg suspension, 10 mg/mL, lipid-fasted, starting gastric pH 2, gastric half-time 30 min): 91.7%

COc1ccc(-c2ccc3c(N4CCOC[C@@H]4C)nc(N4CCOC[C@@H]4C)nc3n2)cc1CO.O=C(O)/C=C/C(=O)O [Formula 5a fumarate salt, (5-{2,4-Bis[(3S)-3-methylmorpholin-4-yl]pyrido[2,3-d]pyrimidin-7-yl}-2-methoxyphenyl)methanol Fumarate salt]
Assay (water and solvent-free, % w/w) ([2]; 1 month, 40° C./75% RH exposed): 100.3 % w/w
Organic impurities: Largest single impurity (% w/w) ([2]; 1 month, 40° C./75% RH exposed): 0.16 % w/w
Total organic impurities (% w/w) ([2]; 1 month, 40° C./75% RH exposed): 0.36 % w/w
Water content (% w/w) ([2]; 1 month, 40° C./75% RH exposed): 5.0 % w/w
Assay (water and solvent-free, % w/w) ([2]; 3 months, 25° C./60% RH): 99.7 % w/w
Organic impurities: Largest single impurity (% w/w) ([2]; 3 months, 25° C./60% RH): 0.16 % w/w
Total organic impurities (% w/w) ([2]; 3 months, 25° C./60% RH): 0.31 % w/w
Water content (% w/w) ([2]; 3 months, 25° C./60% RH): 4.5 % w/w
Assay (water and solvent-free, % w/w) ([2]; 3 months, 40° C./75% RH): 99.3 % w/w
Organic impurities: Largest single impurity (% w/w) ([2]; 3 months, 40° C./75% RH): 0.16 % w/w
Total organic impurities (% w/w) ([2]; 3 months, 40° C./75% RH): 0.26 % w/w
Water content (% w/w) ([2]; 3 months, 40° C./75% RH): 5.6 % w/w
Assay (water and solvent-free, % w/w) ([2]; 3 months, 50° C.): 96.8 % w/w
Organic impurities: Largest single impurity (% w/w) ([2]; 3 months, 50° C.): 0.16 % w/w
Total organic impurities (% w/w) ([2]; 3 months, 50° C.): 0.44 % w/w
Water content (% w/w) ([2]; 3 months, 50° C.): 0.6 % w/w
degradation on storage ([2]; 25° C./60% RH, 40° C./75% RH and 50° C. AH, 3 months): no significant degradation
Assay (water and solvent-free, % w/w) ([2]; 10 days, light-exposed): 95.5 % w/w
Organic impurities: Largest single impurity (% w/w) ([2]; 10 days, light-exposed): 0.97 % w/w
Total organic impurities (% w/w) ([2]; 10 days, light-exposed): 2.28 % w/w
Water content (% w/w) ([2]; 10 days, light-exposed): 5.0 % w/w
Assay (water and solvent-free, % w/w) ([2]; Initial): 99.4 % w/w
Organic impurities: Largest single impurity (% w/w) ([2]; Initial): 0.16 % w/w
Total organic impurities (% w/w) ([2]; Initial): 0.31 % w/w
Water content (% w/w) ([2]; Initial): 3.4 % w/w
effect of exposure to light under stress conditions ([2]; light chamber, minimum 1.2 million lux hours visible and 200 watt-hours/m2 UV): darkened on exposed surfaces and a loss of assay and corresponding increase in organic impurities
thermal degradation ([2]; stored at 50° C.): some evidence of thermal degradation
Total recovery ([1]; 200 mg (free base equivalent) of 10 mg/mL suspension, initial gastric pH 5, gastric half-time 20 min): 95.12
